Activity calls are given as the source filed them. The rule behind the calls is not given here.
Columns and labels:
[1] = molecular target: Xanthine dehydrogenase/oxidase (Homo sapiens, UniProt P47989); assay: Inhibition of XOR (unknown origin) using xanthine as substrate measured for 10 mins by spectrophotometry
[2] = molecular target: T1, Solute carrier family 22 member 12 (Homo sapiens, UniProt Q96S37); assay: Inhibition of human URAT1 expressed in HEK293T cells using 6-carboxylic fluorescein substrate by fluorescence assay; type: cell-based
T1 sequence (Q96S37 whole entry): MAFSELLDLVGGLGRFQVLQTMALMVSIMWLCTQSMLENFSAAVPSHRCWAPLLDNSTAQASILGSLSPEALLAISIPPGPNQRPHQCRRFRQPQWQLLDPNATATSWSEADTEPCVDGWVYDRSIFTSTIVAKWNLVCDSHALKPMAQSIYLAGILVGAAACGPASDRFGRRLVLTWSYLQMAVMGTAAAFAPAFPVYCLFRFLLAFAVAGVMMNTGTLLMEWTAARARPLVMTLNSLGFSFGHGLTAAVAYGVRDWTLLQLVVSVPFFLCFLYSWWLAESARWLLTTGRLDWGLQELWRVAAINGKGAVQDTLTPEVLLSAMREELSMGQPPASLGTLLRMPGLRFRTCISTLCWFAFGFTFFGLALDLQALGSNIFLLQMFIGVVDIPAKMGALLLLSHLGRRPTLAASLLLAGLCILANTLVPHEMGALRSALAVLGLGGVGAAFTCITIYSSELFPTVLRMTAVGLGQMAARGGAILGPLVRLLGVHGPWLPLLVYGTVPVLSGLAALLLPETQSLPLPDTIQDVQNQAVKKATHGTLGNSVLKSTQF

[3] = molecular target: T1, Solute carrier family 22 member 12; assay: Inhibition of human URAT1 expressed in HEK293T cells using 6-carboxylic fluorescein substrate at 1000 uM by fluorescence assay; type: cell-based
URAT1 (SLC22A12) = molecular target: T2, URAT1 (SLC22A12) (Homo sapiens, UniProt Q96S37); assay: Inhibition of human URAT1 expressed in HEK293T cells using 6-carboxylic fluorescein substrate at 100 uM by fluorescence assay relative to control; type: cell-based; details: HEK293T cells expressing human URAT1, probe 6-carboxylic fluorescein
T2 sequence (Q96S37 whole entry): T1 sequence (Q96S37 whole entry)

Mus musculus [4] = assay: Hypouricemic effect in potassium oxonate/hypoxanthine-induced acute hyperuricemia ICR mouse model assessed as decrease in serum uric acid level at 5 mg/kg, gavage measured after 3 to 9 hrs of drug administration; type: functional, organism-based; details: time 3-9 hrs
Mus musculus [5] = assay: Hypouricemic effect in potassium oxonate/hypoxanthine-induced acute hyperuricemia ICR mouse model assessed as decrease in serum uric acid level measured after 1 hr drug administration; type: functional, organism-based

Chain of Xanthine dehydrogenase/oxidase (P47989 whole entry): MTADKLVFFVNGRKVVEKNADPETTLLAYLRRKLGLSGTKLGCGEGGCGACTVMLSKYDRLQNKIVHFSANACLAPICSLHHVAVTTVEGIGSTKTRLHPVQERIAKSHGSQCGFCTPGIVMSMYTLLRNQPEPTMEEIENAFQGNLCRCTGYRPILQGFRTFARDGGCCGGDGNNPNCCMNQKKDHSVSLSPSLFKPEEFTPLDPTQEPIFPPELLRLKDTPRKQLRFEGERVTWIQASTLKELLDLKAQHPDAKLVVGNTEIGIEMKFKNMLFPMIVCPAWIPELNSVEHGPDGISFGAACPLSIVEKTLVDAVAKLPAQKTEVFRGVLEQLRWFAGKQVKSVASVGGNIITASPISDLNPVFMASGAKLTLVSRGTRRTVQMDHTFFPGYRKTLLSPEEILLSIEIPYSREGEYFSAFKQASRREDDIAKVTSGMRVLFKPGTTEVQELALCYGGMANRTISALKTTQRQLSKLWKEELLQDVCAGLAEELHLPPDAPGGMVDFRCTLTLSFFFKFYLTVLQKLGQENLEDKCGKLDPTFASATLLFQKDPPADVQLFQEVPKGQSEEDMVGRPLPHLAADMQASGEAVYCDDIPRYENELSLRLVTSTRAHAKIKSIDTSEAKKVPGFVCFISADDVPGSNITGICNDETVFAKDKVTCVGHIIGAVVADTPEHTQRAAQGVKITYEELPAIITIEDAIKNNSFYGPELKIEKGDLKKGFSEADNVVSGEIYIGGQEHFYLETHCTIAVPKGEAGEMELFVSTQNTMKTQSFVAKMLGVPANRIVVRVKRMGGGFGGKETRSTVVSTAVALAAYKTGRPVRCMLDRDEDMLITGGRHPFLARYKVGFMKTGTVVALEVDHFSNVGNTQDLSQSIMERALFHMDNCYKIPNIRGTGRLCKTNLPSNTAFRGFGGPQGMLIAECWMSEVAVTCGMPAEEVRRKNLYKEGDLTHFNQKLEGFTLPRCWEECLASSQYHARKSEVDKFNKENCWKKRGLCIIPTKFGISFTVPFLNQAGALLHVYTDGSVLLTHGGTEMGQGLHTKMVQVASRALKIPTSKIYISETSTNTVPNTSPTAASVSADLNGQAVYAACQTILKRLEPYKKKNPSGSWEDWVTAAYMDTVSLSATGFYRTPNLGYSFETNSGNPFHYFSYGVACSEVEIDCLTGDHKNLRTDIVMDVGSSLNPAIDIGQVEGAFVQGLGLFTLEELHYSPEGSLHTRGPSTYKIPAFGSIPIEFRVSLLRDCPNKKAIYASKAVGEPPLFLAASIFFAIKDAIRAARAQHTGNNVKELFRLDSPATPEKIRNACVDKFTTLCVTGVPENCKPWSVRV

Row | Compound | IC50 [1] | IC50 [2] | further results
1 | Cc1nc(-c2ccc(OCC(C)C)c(C#N)c2)sc1C(=O)O [FEBUXOSTAT] | 0.008 µM |  | 
2 | Cc1cccc(Nc2cncc(-c3ccc(C(=O)O)c(O)c3)c2)c1 | 0.023 µM | 56.9 µM | 
3 | CC(C)NC(=O)c1cncc(-c2ccc(C(=O)O)cc2)c1 | 0.59 µM |  | inhibition (INH) [3]: Not Active
4 | Cc1ccc(Nc2cncc(-c3ccc(C(=O)O)c(O)c3)c2)cc1Cl | 0.043 µM | 51.7 µM | 
5 | Cc1cccc(Oc2cncc(-c3ccc(C(=O)O)c(O)c3)c2)c1 | 0.026 µM | 86.2 µM | 
6 | Cc1nc(C)c(-c2csc(Nc3ccc(O)c(C(=O)O)c3)n2)s1 | 3.95 µM |  | inhibition at 100 µM (URAT1 (SLC22A12)): 35.5%
7 | O=C(O)c1ccc(-c2cncc(Nc3ccc(Cl)c(Cl)c3)c2)cc1O | 0.019 µM | 80.7 µM | 
8 | CC(C)NC(=O)c1cncc(-c2ccc(O)c(C(=O)O)c2)c1 | 80 µM | 221 µM | 
9 | COc1ccc(Nc2cncc(-c3ccc(C(=O)O)c(O)c3)c2)cc1 | 0.016 µM | 58.3 µM | 
10 | O=C(O)c1ccc(-c2cncc(Nc3ccc(F)c(Cl)c3)c2)cc1O | 0.016 µM | 36.8 µM | 
11 | O=C(O)c1ccc(-c2cncc(Oc3cccc(Cl)c3)c2)cc1O | 0.045 µM | 55.9 µM | 
12 | O=C(O)c1ccc(-c2cncc(Nc3ccc(Cl)cc3)c2)cc1O | 0.013 µM | 57.8 µM | 
13 | CC(C)NC(=O)c1cncc(-c2ccc(C#N)cc2)c1 | 75.4 µM |  | inhibition (INH) [3]: Not Active
14 | CC(C)NC(=O)c1cncc(-c2ccc(C(=O)O)c(O)c2)c1 | 0.037 µM | 547 µM | 
15 | CCc1oc2ccccc2c1C(=O)c1cc(Br)c(O)c(Br)c1 |  |  | Activity (Mus musculus [4]): Active
16 | Cc1ccc(Nc2cncc(-c3ccc(C(=O)O)c(O)c3)c2)cc1 | 0.004 µM | 43.6 µM | 

Row | Compound | IC50 [1] | IC50 [2] | further results
17 | CC(C)(C)c1ccc(Oc2cncc(-c3ccc(C(=O)O)c(O)c3)c2)cc1 | 0.121 µM | 124 µM | Activity (Mus musculus [5]): inactive; Activity (Mus musculus [4]): Active
18 | Cc1ccc(Nc2cncc(-c3ccc(C(=O)O)c(O)c3)c2)cc1F | 0.03 µM | 30.6 µM | 
19 | O=C(O)c1ccc(-c2cncc(Oc3ccc(F)cc3)c2)cc1O | 0.04 µM | 134 µM | 
20 | O=C(O)c1ccc(-c2cncc(Oc3ccc(Cl)cc3)c2)cc1O | 0.038 µM | 64.6 µM | 
21 | CC(C)NC(=O)c1cncc(-c2ccc(F)c(C(=O)O)c2)c1 | > 100 µM | > 1000 µM | 
22 | CC(=O)c1ccc(-c2cncc(C(=O)NC(C)C)c2)cc1 | 6.4 µM |  | inhibition at 100 µM (URAT1 (SLC22A12)): 15.6%
23 | O=C(O)c1ccc(-c2cncc(Nc3ccc(F)cc3)c2)cc1O | 0.015 µM | 91.2 µM | 
24 | Cc1ccc(Nc2cncc(-c3ccc(C(=O)O)c(O)c3)c2)cc1C | 0.021 µM | 53.6 µM | 
25 | O=C(O)c1ccc(-c2cncc(Nc3cccc(Cl)c3)c2)cc1O | 0.006 µM | 12.9 µM | 
26 | CCc1ccc(Nc2cncc(-c3ccc(C(=O)O)c(O)c3)c2)cc1 | 0.026 µM | 31.5 µM | 
27 | O=C(O)c1ccc(-c2cncc(Oc3ccccc3)c2)cc1O | 0.036 µM | 86.7 µM | Activity (Mus musculus [5]): inactive; Activity (Mus musculus [4]): Active
28 | O=C(O)c1ccc(-c2cncc(Nc3ccccc3)c2)cc1O | 0.026 µM | 33.4 µM | 
29 | CC(C)NC(=O)c1cncc(-c2cccc(C(=O)O)c2)c1 | > 100 µM |  | inhibition (INH) [3]: Not Active
30 | CC(C)NC(=O)c1cncc(-c2ccc(Cl)c(C(=O)O)c2)c1 | > 100 µM | > 1000 µM | 
31 | CC(C)(C)c1ccc(Nc2cncc(-c3ccc(C(=O)O)c(O)c3)c2)cc1 | 0.041 µM | 70.3 µM | 
32 | Cc1ccc(Oc2cncc(-c3ccc(C(=O)O)c(O)c3)c2)cc1 | 0.035 µM | 106 µM | 

Source: ChEMBL document CHEMBL5512661, “Design, synthesis, and biological evaluation of 3-phenyl substituted pyridine derivatives as potential dual inhibitors of XOR and URAT1” (Eur J Med Chem, 2024)
